molecular target: T1, GSPT1 (Homo sapiens, UniProt P15170+Q96SW2); test: GSPT1 HiBit degradation assay; format: cell-based; details: Table 3; HEK293 LgBiT cells expressing GSPT1_HiBiT, luminescence after 6 hours
T1 construct: host or cells: HEK293 LgBiT cell line
From the text: Promega developed a HEK293 cell line that constitutively expresses LgBiT protein and GSPT1_HiBiT fusion protein. When both proteins are present, the HiBiT portion of the fusion protein combines with LgBiT protein to form a functional luciferase enzyme. Endurazine, a cell permeable small molecule, is converted by cellular esterases into furimazine, which the luciferase enzyme uses as a substrate to generate luminescence. When GSPT1 is degraded, the HiBit is also degraded. This prevents formation of fully functional luciferase, leading to a loss in luminescence. GSPT1 degradation therefore correlates with a decrease in luminescence and can be measured continuously over time. The concentration of compound at which 50% GSPT1 degradation occurs (DC50) was calculated using this system.
• HEK293 LgBiT Cell line (Promega Custom) • Endurazine Substrate (Promega Cat. #N2570) • DMEM (Gibco Cat. #11995) • Penicillin/Streptomycin (Gibco Cat. #15140-122) • Heat Inactivated Fetal Bovine Serum (Gibco Cat. #A38400-01) • Hygromycin B (Gibco Cat. #10-687-010) • 384 Well TC Treated White Microplate (Perkin Elmer Cat. #6007680)
HEK293 LgBiT cells were cultured in DMEM Media supplemented with 10% FBS, 5% Pen/Strep, 200 μg/ml hygromycin and stored in an incubator set at 37° C. and 5% CO2. 18-24 hours prior to compound treatment, HEK293 LgBiT cells were seeded at 1000 cells/well in a 384-well microplate in 25 μl complete media. The plate was spun at 300 g for 30 seconds and stored in the incubator overnight. The next day, compounds were titrated in DMSO and added to media supplemented with endurazine substrate. A 25 ul aliquot of 2× compound/endurazine in media were then added to the 384-well microplate with seeded cells. (Endurazine was used at a final concentration of 0.5×). The plate was spun at 300 g for 30 seconds and stored in the incubator. After 6 hours the plate was read on a Perkin Elmer MultiMode Plate Reader Envision 2105 to measure luminescence signal.

T1 sequence (P15170 whole entry): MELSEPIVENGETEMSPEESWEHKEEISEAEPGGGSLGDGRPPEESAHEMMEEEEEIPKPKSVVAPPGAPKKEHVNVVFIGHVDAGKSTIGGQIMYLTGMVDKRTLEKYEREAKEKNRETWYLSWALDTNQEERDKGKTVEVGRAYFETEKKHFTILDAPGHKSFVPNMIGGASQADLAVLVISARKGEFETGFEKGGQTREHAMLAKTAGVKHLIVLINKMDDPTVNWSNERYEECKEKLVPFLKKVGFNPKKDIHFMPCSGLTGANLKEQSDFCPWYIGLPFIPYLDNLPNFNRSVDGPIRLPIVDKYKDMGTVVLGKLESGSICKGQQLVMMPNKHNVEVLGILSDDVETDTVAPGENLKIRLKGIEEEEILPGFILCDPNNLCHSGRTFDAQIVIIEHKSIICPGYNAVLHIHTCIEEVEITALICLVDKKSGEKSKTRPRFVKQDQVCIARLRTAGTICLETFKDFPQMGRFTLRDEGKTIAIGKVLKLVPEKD
T1 sequence (Q96SW2 whole entry): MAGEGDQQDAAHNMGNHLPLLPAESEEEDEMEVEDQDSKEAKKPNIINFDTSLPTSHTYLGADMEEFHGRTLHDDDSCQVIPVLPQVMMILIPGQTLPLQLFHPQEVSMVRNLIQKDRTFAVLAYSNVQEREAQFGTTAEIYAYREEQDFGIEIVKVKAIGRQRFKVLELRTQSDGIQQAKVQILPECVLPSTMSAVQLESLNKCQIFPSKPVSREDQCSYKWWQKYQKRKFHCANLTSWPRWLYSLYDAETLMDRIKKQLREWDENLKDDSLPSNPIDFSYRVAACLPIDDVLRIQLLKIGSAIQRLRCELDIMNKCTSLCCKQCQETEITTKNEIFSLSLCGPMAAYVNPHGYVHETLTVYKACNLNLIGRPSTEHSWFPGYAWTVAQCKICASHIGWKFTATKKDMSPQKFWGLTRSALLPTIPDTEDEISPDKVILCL
T1 sequence (Q16531 whole entry partner): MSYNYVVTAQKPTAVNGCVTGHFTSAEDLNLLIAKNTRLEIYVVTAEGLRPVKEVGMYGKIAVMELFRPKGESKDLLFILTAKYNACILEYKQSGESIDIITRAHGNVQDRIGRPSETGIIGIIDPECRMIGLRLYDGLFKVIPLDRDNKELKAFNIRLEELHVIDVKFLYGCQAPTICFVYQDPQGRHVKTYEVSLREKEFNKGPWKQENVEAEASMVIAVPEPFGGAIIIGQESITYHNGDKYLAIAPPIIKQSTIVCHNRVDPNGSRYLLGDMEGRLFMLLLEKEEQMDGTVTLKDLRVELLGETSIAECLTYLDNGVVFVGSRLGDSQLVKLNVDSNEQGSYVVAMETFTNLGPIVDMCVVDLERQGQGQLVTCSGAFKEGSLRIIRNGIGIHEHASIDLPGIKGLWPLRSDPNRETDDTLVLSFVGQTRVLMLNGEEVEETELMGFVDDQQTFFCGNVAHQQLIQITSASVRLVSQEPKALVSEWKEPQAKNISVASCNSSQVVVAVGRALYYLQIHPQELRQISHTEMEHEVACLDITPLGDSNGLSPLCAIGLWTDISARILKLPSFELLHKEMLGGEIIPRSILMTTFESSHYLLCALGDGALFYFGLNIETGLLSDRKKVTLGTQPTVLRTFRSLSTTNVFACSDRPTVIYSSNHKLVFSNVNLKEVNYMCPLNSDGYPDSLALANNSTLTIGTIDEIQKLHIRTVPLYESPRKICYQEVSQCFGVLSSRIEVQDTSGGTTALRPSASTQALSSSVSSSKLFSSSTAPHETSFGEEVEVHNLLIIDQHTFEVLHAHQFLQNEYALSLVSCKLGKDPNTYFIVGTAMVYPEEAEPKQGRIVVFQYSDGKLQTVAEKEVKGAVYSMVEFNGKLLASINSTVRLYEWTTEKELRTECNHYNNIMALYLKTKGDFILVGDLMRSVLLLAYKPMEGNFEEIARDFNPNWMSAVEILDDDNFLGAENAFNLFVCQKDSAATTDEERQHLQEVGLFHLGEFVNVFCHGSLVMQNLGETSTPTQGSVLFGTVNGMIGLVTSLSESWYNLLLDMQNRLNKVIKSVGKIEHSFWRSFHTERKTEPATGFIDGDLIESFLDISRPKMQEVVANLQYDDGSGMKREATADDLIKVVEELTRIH

DC50 [nM]	SMILES
< 250	C=CC(=O)Nc1cc(Nc2nccc(-c3cn(C)c4ccccc34)n2)c(OC)cc1N(C)CCN(C)CCOCCOCCOCCOCCOCCOCCOCCOCCCCCCCCc1cc(Cl)cc(NC(=O)NCc2ccc3c(c2)CN(C2CCC(=O)NC2=O)C3=O)c1 (stereo not shown) [Compound I-68]
< 250	Cc1c(CC(=O)N(C)C)ccc(NC(=O)c2nn([C@@H]3CCCN(C(=O)/C=C/CN(C)CCOCCOCCOCCOCCOCCOCCOCCOCCCCCCCCc4cc(Cl)cc(NC(=O)NCc5ccc6c(c5)CN(C5CCC(=O)NC5=O)C6=O)c4)C3)c3ncnc(N)c23)c1C (stereo partly shown) [Compound I-69]

The next lines start with the molecule.

SMILES	DC50 [nM]
C=C(F)C(=O)N1CCN(c2nc(OC[C@@H]3CCCN3CCCOCCOCCOCCOCCCCCCCCc3cc(Cl)cc(NC(=O)NCc4ccc5c(c4)CN(C4CCC(=O)NC4=O)C5=O)c3)nc3c2CCN(c2cccc4cccc(Cl)c24)C3)C[C@@H]1CC#N (stereo partly shown) [Compound I-70]	< 250
C=C(F)C(=O)N1CCN(c2nc(OC[C@H]3CCCN3CCCOCCOCCOCCOCCOCCOCCCCCCCCc3cc(Cl)cc(NC(=O)NCc4ccc5c(c4)CN(C4CCC(=O)NC4=O)C5=O)c3)nc3c2CCN(c2cccc4cccc(Cl)c24)C3)C[C@H]1CC#N (stereo partly shown) [Compound I-71]	< 250

same assay, conditions: Table 3A; HEK293 LgBiT cells expressing GSPT1_HiBiT, luminescence after 6 hours

DC50 [nM]	SMILES
250 to 5000	CN(C/C=C/C(=O)N1CCC[C@@H](n2nc(-c3ccc(Oc4ccccc4)cc3)c3c(N)ncnc32)C1)CCOCCOCCOCCOCCOCCOCCOCCOCCOCCOCCCCCCCCc1cc(Cl)cc(NC(=O)NCc2ccc3c(c2)CN(C2CCC(=O)NC2=O)C3=O)c1 (stereo partly shown) [Compound I-83]
250 to 5000	CN(C/C=C/C(=O)N1CCN(c2nc(OC[C@@H]3CCCN3C)nc3c2CCN(c2cccc4cccc(Cl)c24)C3)C[C@@H]1CC#N)CCOCCOCCOCCOCCOCCOCCOCCOCCOCCOCCCCCCCCc1cc(Cl)cc(NC(=O)NCc2ccc3c(c2)CN(C2CCC(=O)NC2=O)C3=O)c1 (stereo partly shown) [Compound I-87]
250 to 5000	CN(C/C=C/C(=O)N1CCN(c2nc(OC[C@@H]3CCCN3C)nc3c2CCN(c2cccc4cccc(Cl)c24)C3)C[C@@H]1CC#N)CCOCCOCCOCCOCCOCCOCCOCCOCCOCCOCCOCCOCCCCCCCCc1cc(Cl)cc(NC(=O)NCc2ccc3c(c2)CN(C2CCC(=O)NC2=O)C3=O)c1 (stereo partly shown) [Compound I-88]
250 to 5000	Nc1ncnc2c1c(-c1ccc(Oc3ccccc3)cc1)nn2[C@@H]1CCCN(C(=O)/C=C/COCCOCCOCCOCCOCCOCCOCCOCCOCCOCCOCCCCCCCCc2cc(Cl)cc(NC(=O)NCc3ccc4c(c3)CN(C3CCC(=O)NC3=O)C4=O)c2)C1 (stereo partly shown) [Compound I-94]
< 250	Cc1c(NC(=O)c2ccc(C3CC3)cc2F)cc(F)cc1-c1ncnc(N)c1OCCN(C)C(=O)/C=C/CN(C)CCOCCOCCOCCOCCCCCCCCc1cc(Cl)cc(NC(=O)NCc2ccc3c(c2)CN(C2CCC(=O)NC2=O)C3=O)c1 (stereo not shown) [Compound I-96]
< 250	Cc1c(NC(=O)c2ccc(C3CC3)cc2F)cc(F)cc1-c1ncnc(N)c1OCCN(C)C(=O)/C=C/CN(C)CCOCCOCCOCCOCCOCCOCCCCCCCCc1cc(Cl)cc(NC(=O)NCc2ccc3c(c2)CN(C2CCC(=O)NC2=O)C3=O)c1 (stereo not shown) [Compound I-97]
< 250	Cc1c(NC(=O)c2ccc(C3CC3)cc2F)cc(F)cc1-c1ncnc(N)c1OCCN(C)C(=O)/C=C/CN(C)CCOCCOCCOCCOCCOCCOCCOCCOCCOCCOCCCCCCCCc1cc(Cl)cc(NC(=O)NCc2ccc3c(c2)CN(C2CCC(=O)NC2=O)C3=O)c1 (stereo not shown) [Compound I-98]
< 250	Cc1c(NC(=O)c2ccc(C3CC3)cc2F)cc(F)cc1-c1ncnc(N)c1OCCN(C)C(=O)/C=C/CN(C)CCOCCOCCOCCOCCOCCCCCc1cc(Cl)cc(NC(=O)NCc2ccc3c(c2)CN(C2CCC(=O)NC2=O)C3=O)c1 (stereo not shown) [Compound I-105]

Second part, the molecule before the results:

SMILES	DC50 [nM]
CCN(CCOCCOCCOCCOCCCCCCCCc1cc(Cl)cc(NC(=O)NCc2ccc3c(c2)CN(C2CCC(=O)NC2=O)C3=O)c1)CCOc1ccc(C(=O)c2c(-c3ccc(O)cc3)sc3cc(O)ccc23)cc1 (stereo not shown) [Compound I-77]	< 250
C=C(F)C(=O)N1CCN(c2nc(OC[C@@H]3CCCN3CCCOCCOCCOCCOCCOCCOCCOCCOCCCCCCCCc3cc(Cl)cc(NC(=O)NCc4ccc5c(c4)CN(C4CCC(=O)NC4=O)C5=O)c3)nc3c2CCN(c2cccc4cccc(Cl)c24)C3)C[C@@H]1CC#N (stereo partly shown) [Compound I-78]	< 250
C=C(F)C(=O)N1CCN(c2nc(OC[C@@H]3CCCN3CCCOCCOCCOCCOCCOCCOCCOCCOCCOCCOCCCCCCCCc3cc(Cl)cc(NC(=O)NCc4ccc5c(c4)CN(C4CCC(=O)NC4=O)C5=O)c3)nc3c2CCN(c2cccc4cccc(Cl)c24)C3)C[C@@H]1CC#N (stereo partly shown) [Compound I-80]	250 to 5000
CN(C/C=C/C(=O)N1CCN(c2nc(OC[C@@H]3CCCN3C)nc3c2CCN(c2cccc4cccc(Cl)c24)C3)C[C@@H]1CC#N)CCOCCOCCOCCOCCCCCCCCc1cc(Cl)cc(NC(=O)NCc2ccc3c(c2)CN(C2CCC(=O)NC2=O)C3=O)c1 (stereo partly shown) [Compound I-81]	< 250
Nc1ncnc2c1c(-c1ccc(Oc3ccccc3)cc1)nn2[C@@H]1CCCN(C(=O)/C=C/COCCOCCOCCOCCOCCCCCCCCc2cc(Cl)cc(NC(=O)NCc3ccc4c(c3)CN(C3CCC(=O)NC3=O)C4=O)c2)C1 (stereo partly shown) [Compound I-82]	< 250
CN(C/C=C/C(=O)N1CCN(c2nc(OC[C@@H]3CCCN3C)nc3c2CCN(c2cccc4cccc(Cl)c24)C3)C[C@@H]1CC#N)CCOCCOCCOCCOCCOCCOCCCCCCCCc1cc(Cl)cc(NC(=O)NCc2ccc3c(c2)CN(C2CCC(=O)NC2=O)C3=O)c1 (stereo partly shown) [Compound I-84]	< 250
Nc1ncnc2c1c(-c1ccc(Oc3ccccc3)cc1)nn2[C@@H]1CCCN(C(=O)/C=C/COCCOCCOCCOCCOCCOCCOCCCCCCCCc2cc(Cl)cc(NC(=O)NCc3ccc4c(c3)CN(C3CCC(=O)NC3=O)C4=O)c2)C1 (stereo partly shown) [Compound I-85]	< 250
CN(C/C=C/C(=O)N1CCN(c2nc(OC[C@H]3CCCN3C)nc3c2CCN(c2cccc4cccc(Cl)c24)C3)C[C@@H]1CC#N)CCOCCOCCOCCOCCOCCOCCOCCOCCCCCCCCc1cc(Cl)cc(NC(=O)NCc2ccc3c(c2)CN(C2CCC(=O)NC2=O)C3=O)c1 (stereo partly shown) [Compound I-86]	250 to 5000
Nc1ncnc2c1c(-c1ccc(Oc3ccccc3)cc1)nn2[C@@H]1CCCN(C(=O)/C=C/COCCOCCOCCOCCOCCOCCOCCOCCOCCCCCCCCc2cc(Cl)cc(NC(=O)NCc3ccc4c(c3)CN(C3CCC(=O)NC3=O)C4=O)c2)C1 (stereo partly shown) [Compound I-93]	< 250
C=C(F)C(=O)N1CCN(c2nc(OC[C@@H]3C[C@@H](OCCOCCOCCOCCOCCCCCCCCc4cccc(NC(=O)NCc5ccc6c(c5)CN(C5CCC(=O)NC5=O)C6=O)c4)CN3C)nc3c2CCN(c2cccc4cccc(Cl)c24)C3)C[C@@H]1CC#N (stereo partly shown) [Compound I-99]	250 to 5000
CCC(=O)N1CCN(c2nc(OC[C@@H]3CCCN3CCOCCOCCOCCOCCOCCOCCOCCOCCOCCOCCOCCOCCOCCOCCCCCCCCc3cc(Cl)cc(NC(=O)NCc4ccc5c(c4)CN(C4CCC(=O)NC4=O)C5=O)c3)nc3c2CCN(c2cccc4cccc(Cl)c24)C3)CC1CC#N (stereo partly shown) [Compound I-103]	250 to 5000
CN(C/C=C/C(=O)N1CCC[C@@H](n2nc(-c3ccc(Oc4ccccc4)cc3)c3c(N)ncnc32)C1)CCOCCOCCOCCOCCOCCCCCc1cc(Cl)cc(NC(=O)NCc2ccc3c(c2)CN(C2CCC(=O)NC2=O)C3=O)c1 (stereo partly shown) [Compound I-104]	250 to 5000
CCC(=O)N1CCN(c2nc(OC[C@@H]3CCCN3CCOCCOCCOCCOCCOCCOCCOCCOCCOCCOCCOCCOCCOCCOCCCCCCCCc3cc(Cl)cc(NC(=O)NCc4ccc5c(c4)CN(C4CCC(=O)NC4=O)C5=O)c3)nc3c2CCN(c2cccc4cccc(Cl)c24)C3)C[C@@H]1CC#N (stereo partly shown) [Compound I-106]	250 to 5000
